Data reported in ChEMBL document CHEMBL1136271, “Design and synthesis of potent, orally bioavailable dihydroquinazolinone inhibitors of p38 MAP kinase” (Bioorg Med Chem Lett, 2003).

Experiments:
Type in all cases: ADME, organism-based
[1] = Volume distribution in rat; details: in vivo
[2] = Plasma clearance in rat; details: read-out: Clp
[3] = Half-life in rat; details: in vivo
[4] = Area under curve was determined in rat after PO administration; set-up: concentration or dose not given beside the values; details: in vivo
[5] = Oral bioavailability in rat; details: in vivo

Structure (SMILES)	Vd [1] [L/kg]	clearance [2] [mL/min/kg]	half-life [3] [min]	AUC [4] [µM·h]	bioavailability [5] [%]
O=C1NCc2c(-c3ccc(F)cc3Cl)cc(C3CCN(CC4CCC4)CC3)cc2N1c1c(Cl)cccc1Cl	2.5	24.2	96	0.14	11.6
CC(C)(C)N1CCC(c2cc(-c3ccc(F)cc3Cl)c3c(c2)N(c2c(Cl)cccc2Cl)C(=O)NC3)CC1	6	35.2	132	0.58	67.7
CC(C1CC1)N1CCC(c2cc(-c3ccc(F)cc3Cl)c3c(c2)N(c2c(Cl)cccc2Cl)C(=O)NC3)CC1 (configuration not stated)	4.7	31.1	120	0.36	38
O=C1NCc2c(-c3ccc(F)cc3F)cc(C3CCNCC3)cc2N1c1c(Cl)cccc1Cl	13.6	58.6	198	0.02	4.3
O=C(c1cc(-c2ccc(F)cc2F)c2c(c1)N(c1c(Cl)cccc1Cl)C(=O)NC2)N1CCNCC1	12.8	94.7	138		1.5
O=C1NCc2c(-c3ccc(F)cc3Cl)cc(CN3CCNCC3)cc2N1c1c(Cl)cccc1Cl	18.6	140	168	0.04	15.7
CC(C)N1CCC(c2cc(-c3ccc(F)cc3Cl)c3c(c2)N(c2c(Cl)cccc2Cl)C(=O)NC3)CC1	12.2	84.8	114	0.06	16
O=C1NCc2c(-c3ccc(F)cc3Cl)cc(C3CCNCC3)cc2N1c1c(Cl)cccc1Cl	7.8	72.3	120		0
O=C1NCc2c(-c3ccc(F)cc3Cl)cc(C3CCN(CC4CC4)CC3)cc2N1c1c(Cl)cccc1Cl	6.3	50.9	114	0.15	22.6
O=C1NCc2c(-c3ccc(F)cc3Cl)cc(C3CCN(C4CCC4)CC3)cc2N1c1c(Cl)cccc1Cl	6.6	53.7	102	0.14	24.7
O=C1NCc2c(-c3ccccc3Cl)cc(OC3CCNCC3)cc2N1c1c(Cl)cccc1Cl	21	116	180	0.02	6.3
CCN1CCC(c2cc(-c3ccc(F)cc3Cl)c3c(c2)N(c2c(Cl)cccc2Cl)C(=O)NC3)CC1	7.5	56.3	132	0.11	20
O=C1NCc2c(-c3ccccc3Cl)cc(N3CCNCC3)cc2N1c1c(Cl)cccc1Cl	4.3	34.4	96	0.22	22.7
O=C1NCc2c(-c3ccc(F)cc3Cl)cc(C3CCN(C4CC4)CC3)cc2N1c1c(Cl)cccc1Cl	8.1	51.7	150	0.39	59.3
CN1CCC(c2cc(-c3ccc(F)cc3Cl)c3c(c2)N(c2c(Cl)cccc2Cl)C(=O)NC3)CC1	5.3	49.8	90	0.06	9.2
O=C1NCc2c(-c3ccccc3Cl)cc(C3CCNCC3)cc2N1c1c(Cl)cccc1Cl	21.4	181	150		0
